# Marks after values point to notes of the source that are not given here.
# What was measured:
# Chronic prostatitis = type: in vivo, human
# Excerpt: Thirty four patients (aged 22 to 45 years) with chronic prostatitis were entered into Group 1 of this trial during the acute phase of their disease. Diagnosis was based on medical history, and physical examination of the prostate (palpated through the rectum). Laboratory testing included microscopic examination of prostate gland secretions, spermography and urinalysis. All patients had previously received full courses of unsuccessful therapy with antibacterial agents, and additional individualized therapy including uroantiseptics, spasmolytic, ganglion blockers, novocain paraprostate and presacral blocks, ultrasound, and prostate gland massage. Success of any individualized therapy was only partial and short-term. […]
# Peripheral blood samples were collected for laboratory testing 10 days after the last injection of L-Glu-L-Trp. […]
# [1] = test system: lymphocytes of thymus, spleen, lymph nodes, peripheral blood; assay: Recovery of immune cells in irradiated guinea pigs (1 Gy); type: in vivo; conditions: for E-RFC / E-RFC (% Normal) / EA-RFC / EA-RFC (% Normal) / EAC-RFC / EAC-RFC (% Normal) / Lymphocytes / Lymphocytes (% Normal) / Lymphocyte Blastogenesis with Con-A / Neutrophil Cationic Protein Levels: 0.01 mg/kg daily 5 days
# Excerpt: X-irradiation an accepted experimental animal model for depressing cellular immune mechanisms operative in anti-bacterial, anti-viral, and anti-parasitic immunity. The levels of lymphocytes in thymus, spleen, and lymph node are decreased following sub-lethal radiation exposure, and the effects of L-Glu-L-Trp on recovery of immune function following radiation exposure were investigated in this model.
# 142 guinea pigs were exposed to 1 Gy of X-irradiation and then treated with L-Glu-L-Trp at a dose of 0.01 mg/kg daily for 5 days starting two days after the irradiation. Immunologic indices were determined at 5, 10, and 20 days by preparing samples of immune cells from thymus, spleen, lymph nodes, and peripheral blood. Cell preparations were analyzed to determine the content of lymphocytes, E-RFC (i.e., T-lymphocytes), EA-RFC (“activated” T-lymphocytes), and EAC-RFC (i.e., B-lymphocytes). (The materials and methods used in these analyses are presented following EXAMPLE 38, below. The results obtained in these experiments are summarized in TABLE 55. […]
# Neutrophil cationic proteins were determined according to the method of V. E. Pigarevsky and Yu. A. Mazing (1981). Briefly, blood smears were air dried, stained for 20 minutes in a buffered methanol.-fast green solution, washed in distilled water, and stained for an additional 30 minutes with Azure 11. The percentage of cells containing green-colored granules was determined by microscopically counting a minimum of 100-200 of the cells in the smears, and cation protein concentration was recorded as the mean cytotoxic coefficient (MCC) according to a modified formula of Astold & Berg.
# [2] = After L-Glu-L-Trp, pre-treatment value Decreased (n = 14)
# [3] = Group 1, After L-Glu-L-Trp, 10 days after the last injection
# [4] = lymph node, 5 days post irradiation (1 Gy)
# [5] = lymph node, 10 days post irradiation (1 Gy)
# [6] = lymph node, 20 days post irradiation (1 Gy)
# [7] = peripheral blood, 5 days post-irradiation
# [8] = peripheral blood, 10 days post-irradiation
# [9] = peripheral blood, 20 days post-irradiation
# [10] = splenic, 5 days post irradiation (1 Gy)
# [11] = splenic, 10 days post irradiation (1 Gy)
# [12] = splenic, 20 days post irradiation (1 Gy)
# [13] = thymic, 5 days post irradiation (1 Gy)
# [14] = thymic, 10 days post irradiation (1 Gy)
# [15] = thymic, 20 days post irradiation (1 Gy)
substance,measurement,setting,value
L-Glu-L-Trp,IgG,"Chronic prostatitis; After L-Glu-L-Trp, pre-treatment value Decreased (n = 2)",7.8 ± 1.1 g/L
same,Phagocytes (% of PBL),"Chronic prostatitis; After L-Glu-L-Trp, pre-treatment value Decreased (n = 5)",36.6 ± 8.5 % of PBL
same,Imm. Cmplx.,"Chronic prostatitis; After L-Glu-L-Trp, pre-treatment value Decreased (n = 8)",0.07 ± 0.01 units
same,B-Lymphocytes,"Chronic prostatitis; After L-Glu-L-Trp, pre-treatment value Decreased (n = 10)",26.0 ± 2.9
same,Complement (CH50),Chronic prostatitis; [2],34.2 ± 0.9
same,T-Lymphocytes (%),Chronic prostatitis; [2],37.9 ± 2.2%
same,IgM,"Chronic prostatitis; After L-Glu-L-Trp, pre-treatment value Increased (n = 1)",3.44 g/L
same,T-Lymphocytes (%),"Chronic prostatitis; After L-Glu-L-Trp, pre-treatment value Increased (n = 2)",40.0 ± 15.5%
same,IgG,"Chronic prostatitis; After L-Glu-L-Trp, pre-treatment value Increased (n = 6)",14.7 ± 1.4 g/L
same,Complement (CH50),"Chronic prostatitis; After L-Glu-L-Trp, pre-treatment value Increased (n = 7)",30.7 ± 0.9
same,B-Lymphocytes,"Chronic prostatitis; After L-Glu-L-Trp, pre-treatment value Increased (n = 8)",24.8 ± 2.9
same,Imm. Cmplx.,"Chronic prostatitis; After L-Glu-L-Trp, pre-treatment value Increased (n = 19)",0.08 ± 0.01 units
same,Phagocytes (% of PBL),"Chronic prostatitis; After L-Glu-L-Trp, pre-treatment value Increased (n = 26)",37.7 ± 3.9 % of PBL
same,Phagocytes (% of PBL),"Chronic prostatitis; After L-Glu-L-Trp, pre-treatment value Normal (n = 3)",58.6 ± 18 % of PBL
same,Imm. Cmplx.,"Chronic prostatitis; After L-Glu-L-Trp, pre-treatment value Normal (n = 7)",0.08 ± 0.01 units
same,Complement (CH50),"Chronic prostatitis; After L-Glu-L-Trp, pre-treatment value Normal (n = 13)",29.3 ± 0.9
same,B-Lymphocytes,"Chronic prostatitis; After L-Glu-L-Trp, pre-treatment value Normal (n = 16)",29.2 ± 2.2
same,T-Lymphocytes (%),"Chronic prostatitis; After L-Glu-L-Trp, pre-treatment value Normal (n = 18)",50.0 ± 3.6%
same,IgG,"Chronic prostatitis; After L-Glu-L-Trp, pre-treatment value Normal (n = 26)",12.5 ± 0.7 g/L
same,IgM,"Chronic prostatitis; After L-Glu-L-Trp, pre-treatment value Normal (n = 33)",2.08 ± 0.12 g/L
same,IgA,"Chronic prostatitis; After L-Glu-L-Trp, pre-treatment value Normal (n = 34)",2.2 ± 0.12 g/L
same,“Unsatisfactory” results,Chronic prostatitis; Group 1,No “unsatisfactory” results were recorded
same,B-Lymphocytes: % of PBL,Chronic prostatitis; [3],27.2 ± 1.4 % of PBL
same,B-Lymphocytes: No.,Chronic prostatitis; [3],0.54 ± 0.1 10^9/L
same,Complement (CH50),Chronic prostatitis; [3],29.4 ± 0.5
same,IgA,Chronic prostatitis; [3],2.2 ± 0.1 g/L
same,IgG,Chronic prostatitis; [3],12.5 ± 0.6 g/L
same,IgM,Chronic prostatitis; [3],2.1 ± 0.1 g/L
same,Immune Complexes,Chronic prostatitis; [3],0.80 ± 0.004 units
same,Phagocytes: % PBL,Chronic prostatitis; [3],39.4 ± 3.5 % PBL
same,T-Lymphocytes: % of Lym,Chronic prostatitis; [3],44.4 ± 2.3 % of Lym
same,T-Lymphocytes: No.,Chronic prostatitis; [3],0.88 ± 0.1 10^9/L
same,"Splenic B-lymphocytes (EAC-RFC), % of normal",[1]; day 5,82%
same,"Thymic T-lymphocyte counts, % of normal",[1]; day 5,67%
same,"Thymic lymphocytes, % of normal",[1]; day 5,82%
same,"Splenic B-lymphocytes (EAC-RFC), % of normal",[1]; day 10,100%
same,"Thymic T-lymphocyte counts, % of normal",[1]; day 10,51%
same,"Thymic lymphocytes, % of normal",[1]; day 10,56%
same,Lymph node T-lymphocyte counts,"[1]; guinea pig, in vivo","significantly increased T-lymphocyte counts in lymph nodes on days 5, 10 and 20"
same,E-RFC,[1]; [4],40 +/− 4** × 10^9/L
same,E-RFC (% Normal),[1]; [4],(122%)
same,EA-RFC,[1]; [4],20 +/− 3** × 10^9/L
same,EA-RFC (% Normal),[1]; [4],(111%)
same,EAC-RFC,[1]; [4],25 +/− 2** × 10^9/L
same,EAC-RFC (% Normal),[1]; [4],(45%)
same,Lymphocytes,[1]; [4],183 +/− 21* × 10^9/L
same,Lymphocytes (% Normal),[1]; [4],(73%)
same,E-RFC,[1]; [5],29 +/− 3** × 10^9/L
same,E-RFC (% Normal),[1]; [5],(88%)
same,EA-RFC,[1]; [5],17 +/− 2** × 10^9/L
same,EA-RFC (% Normal),[1]; [5],(94%)
same,EAC-RFC,[1]; [5],12 +/− 1* × 10^9/L
same,EAC-RFC (% Normal),[1]; [5],(21%)
same,Lymphocytes,[1]; [5],75 +/− 13* × 10^9/L
same,Lymphocytes (% Normal),[1]; [5],(30%)
same,E-RFC,[1]; [6],30 +/− 2** × 10^9/L
same,E-RFC (% Normal),[1]; [6],(91%)
same,EA-RFC,[1]; [6],25 +/− 4** × 10^9/L
same,EA-RFC (% Normal),[1]; [6],(139%)
same,EAC-RFC,[1]; [6],9 +/− 1* × 10^9/L
same,EAC-RFC (% Normal),[1]; [6],(16%)
same,Lymphocytes,[1]; [6],242 +/− 31** × 10^9/L
same,Lymphocytes (% Normal),[1]; [6],(96%)
same,Con-A responsiveness and neutrophil cationic proteins,[1]; peripheral blood,statistically significant decrease in Con-A responsiveness and increased levels of neutrophil cationic proteins
same,Lymphocyte Blastogenesis with Con-A,[1]; [7],44 +/− 4** %
same,Neutrophil Cationic Protein Levels,[1]; [7],1.42 +/− 0.15*
same,Lymphocyte Blastogenesis with Con-A,[1]; [8],67 +/− 5** %
same,Neutrophil Cationic Protein Levels,[1]; [8],1.54 +/− 0.09**
same,Lymphocyte Blastogenesis with Con-A,[1]; [9],49 +/− 2** %
same,Neutrophil Cationic Protein Levels,[1]; [9],1.63 +/− 0.11**
same,E-RFC,[1]; [10],48 +/− 4** × 10^9/L
same,E-RFC (% Normal),[1]; [10],(120%)
same,EA-RFC,[1]; [10],22 +/− 4** × 10^9/L
same,EA-RFC (% Normal),[1]; [10],(85%)
same,EAC-RFC,[1]; [10],60 +/− 5** × 10^9/L
same,EAC-RFC (% Normal),[1]; [10],(82%)
same,Lymphocytes,[1]; [10],378 +/− 36** × 10^9/L
same,Lymphocytes (% Normal),[1]; [10],(92%)
same,E-RFC,[1]; [11],29 +/− 3* × 10^9/L
same,E-RFC (% Normal),[1]; [11],(73%)
same,EA-RFC,[1]; [11],15 +/− 2* × 10^9/L
same,EA-RFC (% Normal),[1]; [11],(58%)
same,EAC-RFC,[1]; [11],73 +/− 5** × 10^9/L
same,EAC-RFC (% Normal),[1]; [11],(100%)
same,Lymphocytes,[1]; [11],147 +/− 18** × 10^9/L
same,Lymphocytes (% Normal),[1]; [11],(36%)
same,E-RFC,[1]; [12],45 +/− 4** × 10^9/L
same,E-RFC (% Normal),[1]; [12],(113%)
same,EA-RFC,[1]; [12],29 +/− 4** × 10^9/L
same,EA-RFC (% Normal),[1]; [12],(112%)
same,EAC-RFC,[1]; [12],82 +/− 9 × 10^9/L
same,EAC-RFC (% Normal),[1]; [12],(112%)
same,Lymphocytes,[1]; [12],260 +/− 32** × 10^9/L
same,Lymphocytes (% Normal),[1]; [12],(64%)
same,E-RFC,[1]; [13],252 +/− 26** × 10^9/L
same,E-RFC (% Normal),[1]; [13],(67%)
same,EA-RFC,[1]; [13],150 +/− 16** × 10^9/L
same,EA-RFC (% Normal),[1]; [13],(52%)
same,EAC-RFC,[1]; [13],4 +/− 1** × 10^9/L
same,EAC-RFC (% Normal),[1]; [13],(80%)
same,Lymphocytes,[1]; [13],395 +/− 27** × 10^9/L
same,Lymphocytes (% Normal),[1]; [13],(82%)
same,E-RFC,[1]; [14],195 +/− 21** × 10^9/L
same,E-RFC (% Normal),[1]; [14],(51%)
same,EA-RFC,[1]; [14],143 +/− 16** × 10^9/L
same,EA-RFC (% Normal),[1]; [14],(49%)
same,EAC-RFC,[1]; [14],3 +/− 0.4* × 10^9/L
same,EAC-RFC (% Normal),[1]; [14],(60%)
same,Lymphocytes,[1]; [14],276 +/− 26** × 10^9/L
same,Lymphocytes (% Normal),[1]; [14],(57%)
same,E-RFC,[1]; [15],343 +/− 30** × 10^9/L
same,E-RFC (% Normal),[1]; [15],(91%)
same,EA-RFC,[1]; [15],243 +/− 28** × 10^9/L
same,EA-RFC (% Normal),[1]; [15],(84%)
same,EAC-RFC,[1]; [15],4 +/− 0.4 × 10^9/L
same,EAC-RFC (% Normal),[1]; [15],(80%)
same,Lymphocytes,[1]; [15],423 +/− 40** × 10^9/L
same,Lymphocytes (% Normal),[1]; [15],(88%)
